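Method: 48-hour compound exposure of cells in 96-well plates, five concentrations, linear interpolation of endpoints. At the TGI there is no net growth.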
Columns and labels:
Assay in all cases: growth of human tumour cells (NCI), 48 h
DMS 114 small cell lung = system: DMS 114 small cell lung
NCI-H23 lung = system: NCI-H23 lung
M14 melanoma = system: M14 melanoma
NCI-H460 lung = system: NCI-H460 lung
786-0 renal = system: 786-0 renal
ACHN renal = system: ACHN renal
LXFL 529 NSCLC = system: LXFL 529 NSCLC
TK-10 renal = system: TK-10 renal
SNB-19 CNS = system: SNB-19 CNS
HCC-2998 colon = system: HCC-2998 colon
NCI-H226 lung = system: NCI-H226 lung
COLO 205 colon = system: COLO 205 colon
OVCAR-8 ovarian = system: OVCAR-8 ovarian
OVCAR-5 ovarian = system: OVCAR-5 ovarian
UO-31 renal = system: UO-31 renal
KM20L2 colon = system: KM20L2 colon
SNB-78 CNS = system: SNB-78 CNS
NCI-H522 lung = system: NCI-H522 lung
U251 CNS = system: U251 CNS
KM12 colon = system: KM12 colon
HOP-18 NSCLC = system: HOP-18 NSCLC
HL-60(TB) leukemia = system: HL-60(TB) leukemia
UACC-257 melanoma = system: UACC-257 melanoma
OVCAR-4 ovarian = system: OVCAR-4 ovarian
HCT-116 colon = system: HCT-116 colon
M19-MEL melanoma = system: M19-MEL melanoma
MALME-3M melanoma = system: MALME-3M melanoma
SW-620 colon = system: SW-620 colon
SK-MEL-28 melanoma = system: SK-MEL-28 melanoma
HOP-62 NSCLC = system: HOP-62 NSCLC
LOX IMVI melanoma = system: LOX IMVI melanoma
SK-MEL-2 melanoma = system: SK-MEL-2 melanoma
DLD-1 colon = system: DLD-1 colon
RXF 393 renal = system: RXF 393 renal
SF-268 CNS = system: SF-268 CNS
A549 NSCLC = system: A549 NSCLC
EKVX NSCLC = system: EKVX NSCLC
SF-539 CNS = system: SF-539 CNS
SN12C renal = system: SN12C renal
DMS 273 small cell lung = system: DMS 273 small cell lung
HT29 colon = system: HT29 colon
SF-295 CNS = system: SF-295 CNS
CAKI-1 renal = system: CAKI-1 renal
A498 renal = system: A498 renal
OVCAR-3 ovarian = system: OVCAR-3 ovarian
IGROV1 ovarian = system: IGROV1 ovarian
SR leukemia = system: SR leukemia
SK-OV-3 ovarian = system: SK-OV-3 ovarian
SK-MEL-5 melanoma = system: SK-MEL-5 melanoma
MOLT-4 leukemia = system: MOLT-4 leukemia
RPMI-8226 leukemia = system: RPMI-8226 leukemia
HCT-15 colon = system: HCT-15 colon
UACC-62 melanoma = system: UACC-62 melanoma
HOP-92 NSCLC = system: HOP-92 NSCLC
CCRF-CEM leukemia = system: CCRF-CEM leukemia
SNB-75 CNS = system: SNB-75 CNS
K-562 leukemia = system: K-562 leukemia

CC/C=C/c1cc2c(c3[nH]ccc13)[C@@H](C)CC2C (stereo partly drawn) (tested in a mixture with another compound)
TGI (DMS 114 small cell lung): 35.6 µM
TGI (NCI-H23 lung): 33.1 µM
TGI (M14 melanoma): 29.3 µM
TGI (NCI-H460 lung): 29.5 µM
TGI (786-0 renal): 33.1 µM
TGI (ACHN renal): 31.7 µM
TGI (LXFL 529 NSCLC): 30 µM
TGI (TK-10 renal): 36.9 µM
TGI (SNB-19 CNS): 33.8 µM
TGI (HCC-2998 colon): 10 µM
TGI (NCI-H226 lung): 28.8 µM
TGI (COLO 205 colon): 39.7 µM
TGI (OVCAR-8 ovarian): 31.4 µM
TGI (OVCAR-5 ovarian): 34.1 µM
TGI (UO-31 renal): 31 µM
TGI (KM20L2 colon): 29.3 µM
TGI (SNB-78 CNS): 32.3 µM
TGI (NCI-H522 lung): 30.9 µM
TGI (U251 CNS): 31.9 µM
TGI (KM12 colon): 32.2 µM
TGI (HOP-18 NSCLC): 26.5 µM
TGI (HL-60(TB) leukemia): 44.5 µM
TGI (UACC-257 melanoma): 29.8 µM
TGI (OVCAR-4 ovarian): 28.9 µM
TGI (HCT-116 colon): 33.8 µM
TGI (M19-MEL melanoma): 35.3 µM
TGI (MALME-3M melanoma): 36 µM
TGI (SW-620 colon): 32.3 µM
TGI (SK-MEL-28 melanoma): 30.2 µM
TGI (HOP-62 NSCLC): 32.8 µM
TGI (LOX IMVI melanoma): 29.4 µM
TGI (SK-MEL-2 melanoma): 29.6 µM
TGI (DLD-1 colon): 26.3 µM
TGI (RXF 393 renal): 25.7 µM
TGI (SF-268 CNS): 32 µM
TGI (A549 NSCLC): 39.1 µM
TGI (EKVX NSCLC): 36 µM
TGI (SF-539 CNS): 33.6 µM
TGI (SN12C renal): 28.8 µM
TGI (DMS 273 small cell lung): 29.4 µM
TGI (HT29 colon): 28.4 µM
TGI (SF-295 CNS): 30.2 µM
TGI (CAKI-1 renal): 31.7 µM

O=C1CC2C=CC1C2CO (stereo not drawn)
TGI (DMS 114 small cell lung): > 100 µM
TGI (M14 melanoma): > 100 µM
TGI (A498 renal): > 100 µM
TGI (NCI-H460 lung): > 100 µM
TGI (786-0 renal): > 100 µM
TGI (ACHN renal): > 100 µM
TGI (LXFL 529 NSCLC): > 100 µM
TGI (TK-10 renal): > 100 µM
TGI (SNB-19 CNS): > 100 µM
TGI (OVCAR-3 ovarian): > 100 µM
TGI (HCC-2998 colon): > 100 µM
TGI (NCI-H226 lung): > 100 µM
TGI (COLO 205 colon): > 100 µM
TGI (IGROV1 ovarian): > 100 µM
TGI (SR leukemia): > 100 µM
TGI (OVCAR-8 ovarian): > 100 µM
TGI (OVCAR-5 ovarian): > 100 µM
TGI (UO-31 renal): > 100 µM
TGI (KM20L2 colon): > 100 µM
TGI (SNB-78 CNS): > 100 µM
TGI (NCI-H522 lung): > 100 µM
TGI (U251 CNS): > 100 µM
TGI (KM12 colon): > 100 µM
TGI (HOP-18 NSCLC): > 100 µM
TGI (HL-60(TB) leukemia): > 100 µM
TGI (UACC-257 melanoma): > 100 µM
TGI (SK-OV-3 ovarian): > 100 µM
TGI (OVCAR-4 ovarian): > 100 µM
TGI (HCT-116 colon): > 100 µM
TGI (SK-MEL-5 melanoma): > 100 µM
TGI (M19-MEL melanoma): > 100 µM
TGI (MALME-3M melanoma): > 100 µM
TGI (MOLT-4 leukemia): > 100 µM
TGI (RPMI-8226 leukemia): > 100 µM
TGI (SW-620 colon): > 100 µM
TGI (HCT-15 colon): > 100 µM
TGI (SK-MEL-28 melanoma): > 100 µM
TGI (HOP-62 NSCLC): > 100 µM
TGI (LOX IMVI melanoma): > 100 µM
TGI (DLD-1 colon): > 100 µM
TGI (RXF 393 renal): > 100 µM
TGI (SF-268 CNS): > 100 µM
TGI (UACC-62 melanoma): > 100 µM
TGI (A549 NSCLC): > 100 µM
TGI (EKVX NSCLC): > 100 µM
TGI (SF-539 CNS): > 100 µM
TGI (HOP-92 NSCLC): > 100 µM
TGI (CCRF-CEM leukemia): > 100 µM
TGI (SN12C renal): > 100 µM
TGI (DMS 273 small cell lung): > 100 µM
TGI (SNB-75 CNS): > 100 µM
TGI (HT29 colon): > 100 µM
TGI (SF-295 CNS): > 100 µM
TGI (CAKI-1 renal): > 100 µM

Cc1nc(Nc2ccc(Cl)cc2)sc1C(=O)NNC(=O)C(=O)NN
TGI (DMS 114 small cell lung): 40.7 µM
TGI (NCI-H23 lung): 31.8 µM
TGI (M14 melanoma): 34 µM
TGI (A498 renal): 29.5 µM
TGI (NCI-H460 lung): 34.7 µM
TGI (786-0 renal): 32 µM
TGI (ACHN renal): 49.4 µM
TGI (LXFL 529 NSCLC): 33.6 µM
TGI (TK-10 renal): 91.7 µM
TGI (SNB-19 CNS): 46.3 µM
TGI (OVCAR-3 ovarian): 38.1 µM
TGI (HCC-2998 colon): 35.5 µM
TGI (NCI-H226 lung): 36.6 µM
TGI (COLO 205 colon): 35.8 µM
TGI (IGROV1 ovarian): 33.7 µM
TGI (SR leukemia): 54.8 µM
TGI (OVCAR-8 ovarian): > 100 µM
TGI (OVCAR-5 ovarian): 34.5 µM
TGI (UO-31 renal): 31.5 µM
TGI (KM20L2 colon): 30 µM
TGI (SNB-78 CNS): 64 µM
TGI (NCI-H522 lung): 32 µM
TGI (U251 CNS): 33.2 µM
TGI (KM12 colon): 36 µM
TGI (HOP-18 NSCLC): 37.1 µM
TGI (HL-60(TB) leukemia): 41 µM
TGI (UACC-257 melanoma): 52.5 µM
TGI (SK-OV-3 ovarian): 40.5 µM
TGI (OVCAR-4 ovarian): 34.3 µM
TGI (HCT-116 colon): 33.9 µM
TGI (SK-MEL-5 melanoma): 32.7 µM
TGI (M19-MEL melanoma): 35.6 µM
TGI (MALME-3M melanoma): 38.8 µM
TGI (MOLT-4 leukemia): 42.5 µM
TGI (SW-620 colon): 32.6 µM
TGI (HCT-15 colon): 31.6 µM
TGI (SK-MEL-28 melanoma): 47.3 µM
TGI (HOP-62 NSCLC): 35.9 µM
TGI (LOX IMVI melanoma): 32.3 µM
TGI (SK-MEL-2 melanoma): 32.6 µM
TGI (DLD-1 colon): 32.9 µM
TGI (RXF 393 renal): 43.4 µM
TGI (K-562 leukemia): 51.4 µM
TGI (SF-268 CNS): 66.5 µM
TGI (UACC-62 melanoma): 28.6 µM
TGI (A549 NSCLC): 37.9 µM
TGI (EKVX NSCLC): 30.6 µM
TGI (SF-539 CNS): 41 µM
TGI (HOP-92 NSCLC): 36.4 µM
TGI (CCRF-CEM leukemia): 52.8 µM
TGI (SN12C renal): 30.5 µM
TGI (DMS 273 small cell lung): 33.9 µM
TGI (SNB-75 CNS): 48.6 µM
TGI (HT29 colon): 31.2 µM
TGI (SF-295 CNS): 34 µM
TGI (CAKI-1 renal): 49.3 µM
